Test results published in patent EP0003212A1, “2.4-Diamino-5-benzylpyrimidines, pharmaceutical compositions containing them and their preparation” (F. HOFFMANN-LA ROCHE & CO. Aktiengesellschaft, priority 1977, dated 1979).
Where two headings read alike, the source gives them in different places.

Tests used:
E. coli 1346 = experiment: In vitro antibacterial activity (MIC); format: cell-based; conditions: strain E. coli 1346, unit not given
S. aureus Schoch. = experiment: In vitro antibacterial activity (MIC); format: cell-based; conditions: strain S. aureus Schoch., unit not given
[1] = target: bakterielle Dihydrofolsäurereduktase (DHFR) (Escherichia coli, UniProt P0ABQ4); experiment: 50% inhibition of bacterial dihydrofolate reductase; format: biochemical, E. coli
Excerpt: Die Verbindungen der Formel I und ihre Salze sind antibakteriell wirksam. Sie hemmen die bakterielle Dihydrofolsäurereduktase (DHFR) und potenzieren darüberhinaus die Wirkung von Sulfonamiden und anderen Dihydrofolsäuresynthetasehemmern. Beispiele von Sulfonamiden, die durch die erfindungsgemässen Verbindungen potenziert werden, sind solche der Pyrimidin-, Isoxazol-, Oxazol- und Pyrazinreihe wie Sulfadiazin, Sulfadimethoxin, Sulfadoxin, Sulfamerazin, Sulfameter, Sulfamethazin, 6-Methoxy-4-sulfanilamidopyrimidin, Sulfamethoxazol, Sulfisoxazol, 3-Sulfanilamido-4,5-dimethyl-isoxazol, Sulfamoxol und Sulfalen. Quantitativ zeichnen sich die erfindungsgemässen Verbindungen gegenüber bekannten Verbindungen durch niedrigere 50%ige Hemmkonzentrationen der bakteriellen DHFR, beispielsweise bei E. coli, und durch wesentlich höhere Q-Werte (50%ige Hemmung der DHFR bei Ratte/50%ige Hemmung der DHFR bei E. coli), die ein Mass für die Selektivität der Hemmung der bakteriellen DHFR darstellen, sowie durch geringe Toxizität aus.

[2] = DHFR of E. coli, read-out: 50% Hemmung der DHFR (M x 10^-8) E. coli

Compound	Aktivität in vitro (MIC) E. coli 1346 (E. coli 1346)	Aktivität in vitro (MIC) S. aureus Schoch. (S. aureus Schoch.)	IC50 [1] [nM]	IC50 [1, 2] [nM]
CSc1cc(C)c(Cc2cnc(N)nc2N)cc1SC [R^1=CH3, R^2=H, R^3=SCH3, R^4=SCH3, 2,4-Diamino-5-[2-methyl-4,5-bis-(methylthio)-benzyl]-pyrimidin]	0,7	0,7	15	–
CSc1ccc(Cc2cnc(N)nc2N)cc1SC [R^1=H, R^2=H, R^3=SCH3, R^4=SCH3]	–	0,7	–	16
COCCSc1c(OC)cc(Cc2cnc(N)nc2N)cc1OC [R^1=H, R^2=OCH3, R^3=SC2H4OCH3, R^4=OCH3]	–	1,0	–	97
CCSc1c(OC)cc(Cc2cnc(N)nc2N)cc1OC [R^1=H, R^2=OCH3, R^3=SC2H5, R^4=OCH3, 2,4-Diamino-5-[4-(äthylthio)-3,5-dimethoxybenzyl]-pyrimidin]	0,04	0,4	–	1.8
COc1cc(Cc2cnc(N)nc2N)cc(OC)c1SC [R^1=H, R^2=OCH3, R^3=SCH3, R^4=OCH3, 2,4-Diamino-5-[3,5-dimethoxy-4-(methylthio)-benzyl]-pyrimidin]	0,02	0,4	3.5	–
COc1c(Br)cc(Cc2cnc(N)nc2N)cc1SC [R^1=H, R^2=SCH3, R^3=OCH3, R^4=Br]	0,2	1,0	–	11
COc1cc(Cc2cnc(N)nc2N)cc(SC)c1OC [R^1=H, R^2=SCH3, R^3=OCH3, R^4=OCH3]	0,1	0,78	–	5
COc1c(SC)cc(Cc2cnc(N)nc2N)cc1SC [R^1=H, R^2=SCH3, R^3=OCH3, R^4=SCH3]	0,7	0,2	–	7.2
CSc1cc(Cc2cnc(N)nc2N)cc(SC)c1SC [R^1=H, R^2=SCH3, R^3=SCH3, R^4=SCH3]	0,2	0,2	–	4.5
CSc1cc(Cc2cnc(N)nc2N)cc(SC)c1-n1cccc1 [R^1=H, R^2=SCH3, R^3=[drawing], R^4=SCH3]	> 1	4,0	–	5.2
